Test results published in ChEMBL document CHEMBL1201862, “PubChem BioAssay data set” (2004).
The source made the active and inactive calls.

Legend:
P388/ADR = assay: cells; type: functional; conditions: Mus musculus
SN12K1 = assay: cells; type: functional; conditions: Homo sapiens
P388 = assay: cells; type: functional; conditions: Mus musculus
[1] = viability loss in CEM21 cells – cell-based, CellTiter-Glo luminescence, cherry-picked, cytotoxicity control for viral fusion inhibitor project, dose response (AID 652042); type: functional;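 also: potency for signal decrease meaning cytotoxicity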
[2] = blockers of HIV-1 ZM109 envelope-driven cell-cell fusion – HeLa effector, CEM target cells, luciferase, cherry-pick, dose response (AID 652058); type: functional, cell-based;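 also: luciferase signal from HIV-1 Env mediated cell-cell fusion of effector and target cells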
[3] = off-target signal loss in HeLa-CEM21 co-culture – HeLa F-luc CTL cells, cherry-picked, counter-screen for HIV-1 Env fusion inhibitor project, dose response (AID 652040); type: functional, cell-based;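 also: potency for signal decrease marking cytotoxic or nonspecific inhibition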
[4] = HIV-1 AD8 envelope cell-cell fusion blockers – cherry-pick, dose response (AID 652062); type: functional, cell-based;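 also: luciferase signal from cell-cell fusion driven by HIV-1 clade B AD8 Env; potency is for inhibitors of fusion seen as a drop in luminescence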
[5] = target: T1, Sentrin-specific protease 8 (Homo sapiens, UniProt Q96LD8); assay: inhibition of human SENP8 cleavage activity – biochemical, luminescence, SAR follow-up (AID 504501); type: functional
T1 sequence (Q96LD8 whole entry): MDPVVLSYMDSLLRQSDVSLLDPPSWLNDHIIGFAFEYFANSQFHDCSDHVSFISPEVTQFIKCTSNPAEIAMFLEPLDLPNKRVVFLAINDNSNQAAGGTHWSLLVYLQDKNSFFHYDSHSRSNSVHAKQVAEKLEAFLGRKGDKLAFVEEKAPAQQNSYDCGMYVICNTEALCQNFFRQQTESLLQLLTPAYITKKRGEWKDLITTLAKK

Caspase-3 = target: T2, Caspase-3 (Homo sapiens, UniProt P42574); assay: SAR Analysis of small molecule inhibitors of Sentrin-specific proteases (SENPs) using a Caspase-3 Selectivity assay. [Related pubchem assays (depositor defined):AID2540, AID2599, AID434973, AID489001]; type: functional
T2 sequence (P42574 whole entry): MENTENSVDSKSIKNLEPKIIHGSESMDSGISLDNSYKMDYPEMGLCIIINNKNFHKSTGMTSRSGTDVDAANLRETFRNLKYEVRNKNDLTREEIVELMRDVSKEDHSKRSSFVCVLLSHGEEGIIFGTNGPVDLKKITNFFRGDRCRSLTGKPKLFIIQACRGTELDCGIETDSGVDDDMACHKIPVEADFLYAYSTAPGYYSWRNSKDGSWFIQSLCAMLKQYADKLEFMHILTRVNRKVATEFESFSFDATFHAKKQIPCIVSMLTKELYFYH

[6] = target: T3, Sentrin-specific protease 6 (Homo sapiens, UniProt Q9GZR1); assay: SAR Analysis of small molecule inhibitors of Sentrin-specific protease 6 (SENP6) using a Luminescent assay. [Related pubchem assays (depositor defined):AID2582, AID2599]; type: functional
T3 sequence (Q9GZR1 whole entry): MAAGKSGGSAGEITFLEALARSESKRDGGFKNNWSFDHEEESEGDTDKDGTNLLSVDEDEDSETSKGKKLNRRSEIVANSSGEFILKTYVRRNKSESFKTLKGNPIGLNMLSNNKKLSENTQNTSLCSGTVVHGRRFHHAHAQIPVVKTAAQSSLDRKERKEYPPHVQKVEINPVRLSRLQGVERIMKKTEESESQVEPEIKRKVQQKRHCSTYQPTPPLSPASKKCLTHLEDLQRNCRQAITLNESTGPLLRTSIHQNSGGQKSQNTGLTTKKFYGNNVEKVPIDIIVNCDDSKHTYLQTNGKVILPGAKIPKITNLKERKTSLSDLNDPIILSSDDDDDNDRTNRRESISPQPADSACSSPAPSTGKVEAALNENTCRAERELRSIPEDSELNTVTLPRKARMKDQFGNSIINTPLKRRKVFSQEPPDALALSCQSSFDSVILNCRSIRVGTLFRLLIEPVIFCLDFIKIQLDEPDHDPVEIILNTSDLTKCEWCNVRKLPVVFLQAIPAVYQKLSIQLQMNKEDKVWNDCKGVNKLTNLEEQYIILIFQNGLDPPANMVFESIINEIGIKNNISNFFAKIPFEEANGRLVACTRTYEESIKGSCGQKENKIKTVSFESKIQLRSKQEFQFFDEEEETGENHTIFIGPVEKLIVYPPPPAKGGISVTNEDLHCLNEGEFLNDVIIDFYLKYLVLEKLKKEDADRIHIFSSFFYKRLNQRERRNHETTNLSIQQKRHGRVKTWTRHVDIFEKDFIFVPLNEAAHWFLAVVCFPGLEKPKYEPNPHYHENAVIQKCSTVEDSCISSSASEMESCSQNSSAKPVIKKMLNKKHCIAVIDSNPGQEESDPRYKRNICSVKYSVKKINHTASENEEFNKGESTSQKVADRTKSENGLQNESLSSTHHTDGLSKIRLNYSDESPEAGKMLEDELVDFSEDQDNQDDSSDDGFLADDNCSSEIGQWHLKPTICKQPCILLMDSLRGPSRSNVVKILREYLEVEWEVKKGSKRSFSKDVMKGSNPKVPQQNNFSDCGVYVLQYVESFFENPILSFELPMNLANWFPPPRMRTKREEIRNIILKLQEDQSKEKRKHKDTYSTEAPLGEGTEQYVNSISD

[7] = target: T4, Sentrin-specific protease 7 (Homo sapiens, UniProt Q9BQF6); assay: inhibition of human SENP7 cleavage activity – biochemical, luminescence, SAR follow-up (AID 504497); type: functional
T4 sequence (Q9BQF6 whole entry): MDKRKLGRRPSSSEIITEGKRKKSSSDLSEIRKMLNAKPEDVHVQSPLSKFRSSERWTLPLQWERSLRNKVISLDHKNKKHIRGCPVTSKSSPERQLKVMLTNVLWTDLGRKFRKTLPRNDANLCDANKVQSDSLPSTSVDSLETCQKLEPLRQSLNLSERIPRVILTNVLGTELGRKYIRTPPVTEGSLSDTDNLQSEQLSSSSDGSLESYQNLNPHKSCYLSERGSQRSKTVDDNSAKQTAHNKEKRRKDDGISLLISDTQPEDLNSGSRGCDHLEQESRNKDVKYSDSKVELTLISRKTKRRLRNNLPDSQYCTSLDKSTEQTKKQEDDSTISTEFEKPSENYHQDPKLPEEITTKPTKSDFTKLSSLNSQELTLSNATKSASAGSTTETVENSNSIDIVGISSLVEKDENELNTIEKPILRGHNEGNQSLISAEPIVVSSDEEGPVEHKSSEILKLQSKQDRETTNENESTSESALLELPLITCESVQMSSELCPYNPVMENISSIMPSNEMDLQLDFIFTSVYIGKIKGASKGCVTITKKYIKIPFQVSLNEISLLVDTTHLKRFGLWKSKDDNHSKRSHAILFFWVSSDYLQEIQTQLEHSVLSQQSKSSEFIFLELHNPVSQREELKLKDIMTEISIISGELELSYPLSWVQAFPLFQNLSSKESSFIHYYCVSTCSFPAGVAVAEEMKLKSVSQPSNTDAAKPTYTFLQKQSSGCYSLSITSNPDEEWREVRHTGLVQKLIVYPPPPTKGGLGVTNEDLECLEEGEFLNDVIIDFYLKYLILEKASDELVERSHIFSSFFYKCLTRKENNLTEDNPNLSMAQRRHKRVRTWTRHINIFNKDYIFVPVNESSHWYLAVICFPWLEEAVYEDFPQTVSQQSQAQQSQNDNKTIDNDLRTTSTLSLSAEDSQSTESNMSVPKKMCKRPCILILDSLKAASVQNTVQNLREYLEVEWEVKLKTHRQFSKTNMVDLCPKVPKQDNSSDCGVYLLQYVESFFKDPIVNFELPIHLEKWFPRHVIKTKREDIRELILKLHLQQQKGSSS

[8] = inhibition of ARNT PAS-B/TACC3 complex formation – biochemical, AlphaScreen, cherry-picked samples, confirmation (AID 651703); type: functional, Homo sapiens;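 also: His-tagged ARNT PAS-B domain paired with GST-TACC3 E629A dimer coactivator fragment; potency of inhibitors that break up the complex and lower AlphaScreen signal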
[9] = target: Photoreceptor-specific nuclear receptor (Homo sapiens, UniProt Q9Y5X4); type: functional, cell-based;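 also: CHO-S cells with Gal4-NCOR and VP16-NR2E3 two-hybrid luciferase reporter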
Photoreceptor-specific nuclear receptor, sequence (Q9Y5X4 whole entry, the tested form may be a part): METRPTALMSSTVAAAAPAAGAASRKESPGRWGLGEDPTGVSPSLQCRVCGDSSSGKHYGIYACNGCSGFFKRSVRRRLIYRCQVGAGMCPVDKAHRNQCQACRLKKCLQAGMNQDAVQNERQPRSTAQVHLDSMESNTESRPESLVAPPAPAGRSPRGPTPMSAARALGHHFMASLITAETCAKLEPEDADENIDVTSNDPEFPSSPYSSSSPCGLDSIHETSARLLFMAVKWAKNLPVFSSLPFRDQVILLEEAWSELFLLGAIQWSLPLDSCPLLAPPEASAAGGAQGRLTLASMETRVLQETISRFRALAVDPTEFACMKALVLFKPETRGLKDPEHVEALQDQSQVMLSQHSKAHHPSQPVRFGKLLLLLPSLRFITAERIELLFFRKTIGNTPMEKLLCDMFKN

[10] = target: SWI/SNF-related matrix-associated actin-dependent regulator of chromatin subfamily A member 2 (Homo sapiens, UniProt P51531); assay: Luminescence-based cell-based high throughput dose response assay to identify activators of the function of SWI/SNF related, matrix associated, actin dependent regulator of chromatin, subfamily a, member 2 (SMARCA2, BRM).; type: functional
SWI/SNF-related matrix-associated actin-dependent regulator of chromatin subfamily A member 2, sequence (P51531 whole entry): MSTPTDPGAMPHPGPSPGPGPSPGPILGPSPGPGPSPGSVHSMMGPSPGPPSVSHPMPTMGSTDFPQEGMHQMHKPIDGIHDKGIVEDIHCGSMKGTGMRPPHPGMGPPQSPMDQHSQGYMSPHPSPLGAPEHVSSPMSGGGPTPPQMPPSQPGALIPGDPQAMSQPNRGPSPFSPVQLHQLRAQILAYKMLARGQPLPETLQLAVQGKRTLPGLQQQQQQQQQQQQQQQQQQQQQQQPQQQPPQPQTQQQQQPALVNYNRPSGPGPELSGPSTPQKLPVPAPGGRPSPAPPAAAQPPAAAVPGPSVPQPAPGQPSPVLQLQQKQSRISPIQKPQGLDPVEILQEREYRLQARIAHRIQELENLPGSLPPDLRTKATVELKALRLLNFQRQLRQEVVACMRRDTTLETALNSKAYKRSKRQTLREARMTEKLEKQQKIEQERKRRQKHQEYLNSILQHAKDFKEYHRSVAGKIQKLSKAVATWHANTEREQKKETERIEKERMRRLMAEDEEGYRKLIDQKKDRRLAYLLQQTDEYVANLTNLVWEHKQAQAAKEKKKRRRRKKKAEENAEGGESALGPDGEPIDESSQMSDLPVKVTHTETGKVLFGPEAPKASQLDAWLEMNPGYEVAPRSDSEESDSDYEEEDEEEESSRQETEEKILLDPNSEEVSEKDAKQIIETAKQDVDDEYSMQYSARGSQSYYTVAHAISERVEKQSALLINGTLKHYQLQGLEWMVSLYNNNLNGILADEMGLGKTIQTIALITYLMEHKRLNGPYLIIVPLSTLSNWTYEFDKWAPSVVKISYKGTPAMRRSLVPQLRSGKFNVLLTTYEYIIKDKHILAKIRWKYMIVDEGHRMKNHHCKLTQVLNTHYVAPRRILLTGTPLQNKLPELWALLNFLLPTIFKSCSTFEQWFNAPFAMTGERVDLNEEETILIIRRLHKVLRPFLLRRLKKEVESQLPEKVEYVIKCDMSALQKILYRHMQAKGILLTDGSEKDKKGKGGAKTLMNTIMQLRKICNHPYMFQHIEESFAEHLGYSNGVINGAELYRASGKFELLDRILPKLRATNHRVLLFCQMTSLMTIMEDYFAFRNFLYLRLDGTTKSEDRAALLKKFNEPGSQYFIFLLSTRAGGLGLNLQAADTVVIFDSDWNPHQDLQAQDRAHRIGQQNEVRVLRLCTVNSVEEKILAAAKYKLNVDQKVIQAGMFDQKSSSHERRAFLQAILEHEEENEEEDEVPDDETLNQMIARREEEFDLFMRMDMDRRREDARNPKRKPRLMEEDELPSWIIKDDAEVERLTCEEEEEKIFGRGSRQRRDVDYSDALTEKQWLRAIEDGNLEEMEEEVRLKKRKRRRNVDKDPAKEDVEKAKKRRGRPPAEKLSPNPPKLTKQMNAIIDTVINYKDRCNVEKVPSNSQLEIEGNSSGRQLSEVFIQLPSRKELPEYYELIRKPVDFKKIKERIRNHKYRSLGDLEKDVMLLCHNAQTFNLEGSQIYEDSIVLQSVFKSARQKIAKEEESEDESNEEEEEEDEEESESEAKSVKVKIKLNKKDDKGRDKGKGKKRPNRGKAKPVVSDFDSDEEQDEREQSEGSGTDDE

[11] = Counterscreen for activators of the function of SWI/SNF related, matrix associated, actin dependent regulator of chromatin, subfamily a, member 2 (SMARCA2, BRM): Luminescence-based cell-based high throughput dose response assay to identify non-selective compounds using the VP16 reporter assay.; type: functional
[12] = NIH-3T3 fibroblast cytotoxicity, dose response, cytotoxicity control, cell-based, fluorescence, Alamar Blue, secondary assay (AID 2327); type: functional;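 also: NIH-3T3 mouse fibroblasts cultured with fluconazole at 8 µg/mL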
[13] = fluconazole-exposed Candida albicans growth modulators – fluorescence, retest, confirmation (AID 2467); type: functional, cell-based
[14] = viability of PTEN-deleted HCT116 cells – cell-based, HCT116 PTEN knockout, dose response (AID 1047); type: functional;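 also: HCT116 colon tumor cells with PTEN knocked out; cells exposed to compound for 60 hours before readout; potency for loss of cell viability measured by luminescence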
[15] = viability of HCT116 lacking mutant beta-catenin – cell-based, human colon tumor, dose response (AID 1045); type: functional;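 also: HCT116 colon tumor cells with beta catenin knocked out; cells exposed to compound for 60 hours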
INS1 = assay: INS-1E survival protection against cytokine death – cell-based, luminescence, retest, dose response (AID 449756); type: functional; conditions: Rattus norvegicus;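 also: cell death triggered by IL-1 beta plus TNF-alpha plus IFN-gamma mixture; protective hits raise ATP signal compared with cytokine alone wells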
[16] = blockers of HIV-1 envelope-mediated cell-cell fusion – cherry-pick, dose response (AID 652057); type: functional, cell-based
Vero = assay: cells; type: functional; conditions: Chlorocebus sabaeus
Galanin receptor type 3 = target: T5, Galanin receptor type 3 (Homo sapiens, UniProt O60755); assay: Fluorescence-based cell-based primary high throughput dose response assay to identify antagonists of the Galanin Receptor 3 (GalR3).; type: functional
T5 sequence (O60755 whole entry): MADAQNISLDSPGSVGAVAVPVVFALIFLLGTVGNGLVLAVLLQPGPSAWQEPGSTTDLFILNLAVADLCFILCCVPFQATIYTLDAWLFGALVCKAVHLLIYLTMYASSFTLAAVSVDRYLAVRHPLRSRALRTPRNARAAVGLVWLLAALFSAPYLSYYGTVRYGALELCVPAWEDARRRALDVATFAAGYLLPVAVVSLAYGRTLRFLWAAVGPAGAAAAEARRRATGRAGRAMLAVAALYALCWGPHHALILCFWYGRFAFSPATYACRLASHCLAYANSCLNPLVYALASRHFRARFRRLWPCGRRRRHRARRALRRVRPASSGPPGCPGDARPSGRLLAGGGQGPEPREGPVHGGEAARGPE

cells = type: functional, cell-based; conditions: HEK-CNG

Compound: COc1cc2c(cc1OC)C(OC)N(C)c1c-2ccc2cc3c(cc12)OCO3 (configuration not stated)
- GI50 (P388/ADR): 2.58 µM (inactive)
- GI50 (SN12K1): 0.652 µM (active)
- GI50 (P388): 0.667 µM (active)

Compound: Nc1ccc(O)cc1C(=O)OCC(=O)c1ccc(C2CCCCC2)cc1
- AC50 [1]: 2.3 µM (active)
- AC50 [2]: 0.865 µM (active)
- AC50 [3]: 40.9 µM (active)
- AC50 [4]: 2.09 µM (active)

Compound: CCOc1ccc(C(=O)Nc2ccc3ccccc3c2)cc1Br
- IC50 [5]: > 99 µM (inactive)
- IC50 (Caspase-3): > 99 µM (inactive)
- IC50 [6]: > 99 µM (inactive)
- IC50 [7]: > 99 µM (inactive)

Compound: C(/C=C/c1ccccc1)=N/Nc1cc(N2CCCC2)nc(N2CCCC2)n1
- IC50 [5]: 43.5 µM (active)
- IC50 (Caspase-3): > 99 µM (inactive)
- IC50 [6]: 11 µM (active)
- IC50 [7]: 32.9 µM (active)

Compound: COc1ccc(OC)c(-c2cc(C(=O)N3CCN(c4ncccn4)CC3)c3ccccc3n2)c1
- AC50 [8]: 127 µM (active)

Compound: O=C(Nc1ccc(Cn2cccn2)cc1)c1ccc(COc2ccccc2Br)cc1
- IC50 [9]: 4.43 µM (active)

Compound: COc1nc(N)nc2nc[nH]c12
- GI50 (P388/ADR): 265 µM (inactive)
- GI50 (SN12K1): 383 µM (inactive)
- GI50 (P388): 339 µM (inactive)

Compound: Cc1onc(-c2ccccc2Cl)c1C(=O)Nc1nc2c(s1)CCCC2
- IC50 [9]: 1.25 µM (active)

Compound: CC1=Nn2c(nnc2-c2ccccn2)SC1
- AC50 [8]: 84.7 µM (active)

Compound: O=C(c1noc2c1CCc1ccccc1-2)N1CCOCC1
- EC50 [10]: > 91.2 µM (inactive)
- EC50 [11]: > 91.2 µM (inactive)

Compound: COc1ccc(/C=N/Nc2nc(NCc3ccccc3)nc(N(C)C)n2)cc1Br
- IC50 [5]: > 99 µM (inactive)
- IC50 (Caspase-3): > 99 µM (inactive)
- IC50 [6]: > 99 µM (inactive)
- IC50 [7]: > 99 µM (inactive)

Compound: COc1cccc(CNCCc2c[nH]c3ccccc23)c1OCc1ccccc1F
- EC50 [12]: > 150 µM (inconclusive)
- EC50 [13]: 1.5 µM (active)
- EC50 [14]: 5.56 µM (active)
- EC50 [15]: 4.65 µM (active)
- AC50 (INS1): 8.08 µM (active)
- AC50 [16]: 3.52 µM (active)
- AC50 [1]: 9.93 µM (active)
- AC50 [2]: 25.6 µM (active)
- AC50 [3]: 23.2 µM (active)
- AC50 [4]: 7.5 µM (active)

Compound: NC1(C(=O)O)CCc2ccc(N(CCCl)CCCl)cc2C1 (configuration not stated)
- GI50 (P388/ADR): 10.9 µM (inactive)
- GI50 (SN12K1): 64.1 µM (inactive)
- GI50 (P388): 1.67 µM (inactive)

Compound: CN(C)CCSc1nccc(-c2ccc(-c3ccnc(SCCN(C)C)n3)s2)n1
- GI50 (P388/ADR): 2.35 µM (inactive)
- GI50 (SN12K1): 11.1 µM (inactive)
- GI50 (P388): 1.04 µM (active)

Compound: CN(C)CC1CCC/C(=C\c2ccc(OC(=O)/C=C/c3ccccc3)cc2)C1=O (configuration not stated)
- CC50 (Vero): > 25 µM (active)

Compound: Cc1n[nH]c(NCCO)c1[N+](=O)[O-]
- IC50 (Galanin receptor type 3): > 29.9 µM (inactive)
- EC50 (cells): > 29.9 µM (inactive)
